Data published in ChEMBL document CHEMBL1135076, “Leishmanicidal activity of some aliphatic diamines and amino-alcohols” (Bioorg Med Chem Lett, 2002).

Legend:
Assay type in all cases: functional, organism-based
[1] = system: Leishmania braziliensis; assay: Tested in vitro for leishmanicidal activity against Leishmania brasiliensis (2903) at the concentration of 10 ug/mL; + indicatesLess than 70% lysis of parasites
[2] = system: Leishmania donovani; assay: In vitro for leishmanicidal activity against Leishmania donovani (PP75) at the concentration of 10 ug/mL.
[3] = system: Leishmania donovani; assay: In vitro for leishmanicidal activity against Leishmania donovani (PP75) at the concentration of 100 ug/mL.
[4] = system: Leishmania donovani; assay: Tested in vitro for leishmanicidal activity against Leishmania donovani (PP75) at the concentration of 25 ug/mL;++ indicates 80-90% lysis of parasites
[5] = system: Leishmania donovani; assay: In vitro for leishmanicidal activity against Leishmania donovani (PP75) at the concentration of 50 ug/mL.
[6] = system: Leishmania amazonensis; assay: In vitro for leishmanicidal activity against Leishmania amazonensis (PH8) at the concentration of 100 ug/mL.
[7] = system: Leishmania amazonensis; assay: Tested in vitro for leishmanicidal activity against Leishmania amazonensis (PH8) at the concentration of 25 ug/mL; ++ indicates 80-90% lysis of parasites
[8] = system: Leishmania amazonensis; assay: In vitro for leishmanicidal activity against Leishmania amazonensis (PH8) at the concentration of 50 ug/mL.
[9] = system: Leishmania braziliensis; assay: Tested in vitro for leishmanicidal activity against Leishmania brasiliensis (2903) at the concentration of 25 ug/mL; ++ indicates 80-90% lysis of parasites
[10] = system: Leishmania amazonensis; assay: In vitro for leishmanicidal activity against Leishmania amazonensis (PH8) at the concentration of 10 ug/mL.
[11] = system: Leishmania braziliensis; assay: Tested in vitro for leishmanicidal activity against Leishmania brasiliensis (2903) at the concentration of 10 ug/mL; ++ indicates 80-90% lysis of parasites
[12] = system: Leishmania donovani; assay: Tested in vitro for leishmanicidal activity against Leishmania donovani (PP75) at the concentration of 10 ug/mL;++ indicates 80-90% lysis of parasites
[13] = system: Leishmania amazonensis; assay: Tested in vitro for leishmanicidal activity against Leishmania amazonensis (PH8) at the concentration of 10 ug/mL; ++ indicates 80-90% lysis of parasites
[14] = system: Leishmania donovani; assay: Tested in vitro for leishmanicidal activity against Leishmania donovani (PP75) at the concentration of 50 ug/mL;++ indicates 80-90%lysis of parasites
[15] = system: Leishmania braziliensis; assay: Tested in vitro for leishmanicidal activity against Leishmania brasiliensis (2903) at the concentration of 10 ug/mL; + indicates Less than 70% lysis of parasites
[16] = system: Leishmania braziliensis; assay: Tested in vitro for leishmanicidal activity against Leishmania brasiliensis (2903) at the concentration of 50 ug/mL; ++ indicates 80-90%lysis of parasites
[17] = system: Leishmania donovani; assay: Tested in vitro for leishmanicidal activity against Leishmania donovani (PP75) at the concentration of 25 ug/mL;+ indicates Less than 70% lysis of parasites
[18] = system: Leishmania amazonensis; assay: Tested in vitro for leishmanicidal activity against Leishmania amazonensis (PH8) at the concentration of 25 ug/mL; + indicates less than 70% lysis of parasites
[19] = system: Leishmania amazonensis; assay: Tested in vitro for leishmanicidal activity against Leishmania amazonensis (PH8) at the concentration of 50 ug/mL; ++ indicates 80-90% lysis of parasites
[20] = system: Leishmania braziliensis; assay: Tested in vitro for leishmanicidal activity against Leishmania brasiliensis (2903) at the concentration of 25 ug/mL; + indicates Less than 70% lysis of parasites
[21] = system: Leishmania braziliensis; assay: In vitro for leishmanicidal activity against Leishmania brasiliensis (2903) at the concentration of 10 ug/mL.
[22] = system: Leishmania braziliensis; assay: Tested in vitro for leishmanicidal activity against Leishmania brasiliensis (2903) at the concentration of 50 ug/mL; + indicates Less than 70% lysis of parasites
[23] = system: Leishmania donovani; assay: Tested in vitro for leishmanicidal activity against Leishmania donovani (PP75) at the concentration of 10 ug/mL
[24] = system: Leishmania donovani; assay: Tested in vitro for leishmanicidal activity against Leishmania donovani (PP75) at the concentration of 50 ug/mL;+ indicates Less than 70% lysis of parasites
[25] = system: Leishmania amazonensis; assay: Tested in vitro for leishmanicidal activity against Leishmania amazonensis (PH8) at the concentration of 50 ug/mL; + indicates less than 70% lysis of parasites
[26] = system: Leishmania braziliensis; assay: Tested in vitro for leishmanicidal activity against Leishmania brasiliensis (2903) at the concentration of 10 ug/mL;++ indicates 80-90% lysis of parasites
[27] = system: Leishmania donovani; assay: Tested in vitro for leishmanicidal activity against Leishmania donovani (PP75) at the concentration of 10 ug/mL++ indicates 80-90% lysis of parasites
[28] = system: Leishmania braziliensis; assay: In vitro for leishmanicidal activity against Leishmania brasiliensis (2903) at the concentration of 100 ug/mL.
[29] = system: Leishmania braziliensis; assay: Tested in vitro for leishmanicidal activity against Leishmania brasiliensis (2903) at the concentration of 10 ug/mL;+ indicates Less than 70% lysis of parasites
[30] = system: Leishmania braziliensis; assay: Tested in vitro for leishmanicidal activity against Leishmania brasiliensis (2903) at the concentration of 25 ug/mL;++ indicates 80-90% lysis of parasites
[31] = system: Leishmania donovani; assay: Tested in vitro for leishmanicidal activity against Leishmania donovani (PP75) at the concentration of 25 ug/mL;++ indicates 80-90%lysis of parasites
[32] = system: Leishmania amazonensis; assay: Tested in vitro for leishmanicidal activity against Leishmania amazonensis (PH8) at the concentration of 25 ug/mL;++ indicates 80-90% lysis of parasites
[33] = system: Leishmania donovani; assay: Tested in vitro for leishmanicidal activity against Leishmania donovani (PP75) at the concentration of 50 ug/mL;++ indicates 80-90% lysis of parasites
[34] = system: Leishmania braziliensis; assay: Tested in vitro for leishmanicidal activity against Leishmania brasiliensis (2903) at the concentration of 50 ug/mL;++ indicates 80-90% lysis of parasites
[35] = system: Leishmania amazonensis; assay: Tested in vitro for leishmanicidal activity against Leishmania amazonensis (PH8) at the concentration of 50 ug/mL;++ indicates 80-90% lysis of parasites
[36] = system: Leishmania braziliensis; assay: Tested in vitro for leishmanicidal activity against Leishmania brasiliensis (2903) at the concentration of 25 ug/mL; ++ indicates 80-90%lysis of parasites

SMILES	Activity [2]	Activity [3]	Activity [5]	Activity [6]	Activity [8]	Activity [10]	Activity [17]	Activity [18]	Activity [20]	further results
CCCCCCCCCCCCCCC(COCc1ccccc1)NCC (stereo not drawn)	80-90% lysis of parasites	+	80-90% lysis of parasites	+	+	80-90% lysis of parasites				Activity [1]: 80-90% lysis of parasites; Activity [4]: 80-90% lysis of parasites; Activity [7]: 80-90% lysis of parasites; Activity [9]: 80-90% lysis of parasites
CCCCCCCCCCCCCCC(CO)NCC (stereo not drawn)		+	+	+	+					Activity [11]: 80-90% lysis of parasites; Activity [12]: 80-90% lysis of parasites; Activity [13]: 80-90% lysis of parasites
CCCCCCCCCCCCCCC(CO)NCC(=O)OCC (stereo not drawn)	80-90% lysis of parasites	+		+		80-90% lysis of parasites	80-90% lysis of parasites	80-90% lysis of parasites	80-90% lysis of parasites	Activity [14]: 80-90% lysis of parasites; Activity [15]: 80-90% lysis of parasites; Activity [16]: 80-90% lysis of parasites; Activity [19]: 80-90% lysis of parasites
CCCCCCCCCCCCCCC(CO)NCC(=O)O (stereo not drawn)		+		+		Less than 70% lysis of parasites	Less than 70% lysis of parasites	Less than 70% lysis of parasites	Less than 70% lysis of parasites	Activity [21]: Less than 70% lysis of parasites; Activity [22]: Less than 70% lysis of parasites; Activity [23]: Less than 70% lysis of parasites; Activity [24]: Less than 70% lysis of parasites; Activity [25]: Less than 70% lysis of parasites
CCCCCCCCCCCCCCC(N)CN(CC(=O)OCC)CC(=O)OCC (stereo not drawn)		+	+	+	+					Activity [26]: 80-90% lysis of parasites; Activity [27]: 80-90% lysis of parasites; Activity [28]: +; Activity [13]: 80-90% lysis of parasites
CCCCCCCCCCCCCCC(CN(CC)CC)NC(=O)CCCC(=O)O (stereo not drawn)	80-90% lysis of parasites	+	+	+	+	80-90% lysis of parasites				Activity [29]: 80-90% lysis of parasites; Activity [30]: 80-90% lysis of parasites; Activity [31]: 80-90% lysis of parasites; Activity [32]: 80-90% lysis of parasites; Activity [28]: +
CCCCCCCCCCCCCCC(CO)NC(=O)CCCC(=O)O (stereo not drawn)	80-90% lysis of parasites	+		+		80-90% lysis of parasites	80-90% lysis of parasites	80-90% lysis of parasites	80-90% lysis of parasites	Activity [33]: 80-90% lysis of parasites; Activity [15]: 80-90% lysis of parasites; Activity [34]: 80-90% lysis of parasites; Activity [35]: 80-90% lysis of parasites
CCCCCCCCCCCCCCC(CO)N(CC)CC (stereo not drawn)	80-90% lysis of parasites	+	+	+	+	80-90% lysis of parasites	80-90% lysis of parasites	80-90% lysis of parasites		Activity [36]: 80-90% lysis of parasites
